Source: publication PMC9504842, “Comprehensive Metabolic Profiling of Euphorbiasteroid in Rats by Integrating UPLC-Q/TOF-MS and NMR as Well as Microbial Biotransformation” (Metabolites, 2022)
Read-outs that look alike come from different tables or passages of the source.

Assays:
[1] = test system: SH-SY5Y neuroblastoma cells; assay: CCK-8 cell cytotoxicity assay, SH-SY5Y; type: cell-based; details: Homo sapiens, read-out: IC50 (μM) SH-SY5Y
Description: (§1) Cell cytotoxicity was determined by the CCK-8 assay. Four strains of human cells (SH-SY5Y) were seeded in 96-well plates at a density of 3 × 10^3 cells/well under 37 °C and 5% CO2 for 12 h and subsequently treated with the test sample solution (euphorbiasteroid and its metabolites, 10 μL) for 72 h. After treatment, each well with 10 μL CCK-8 reagent was incubated for 1–2 h in the incubator. Afterwards, the optical OD-value was measured at 450 nm through a microplate reader. Three multiple wells were set as parallel experimental groups.
(§2) Euphorbiasteroid and its metabolites were tested for their cytotoxicity on human cell lines SH-SY5Y, LO2, AC-16, and HK-2 by the CCK-8 assay. […] Therefore, considering the high content of euphorbiasteroid in Euphorbiae semen, it was speculated that the metabolites from hydroxylation and hydrolysis might be the potential toxic constituents of Euphorbiae semen.

[2] = test system: HK-2 cells; assay: CCK-8 cell cytotoxicity assay, HK-2; type: cell-based; details: Homo sapiens, read-out: IC50 (μM) HK-2
Description: as §1, §2

[3] = test system: LO2 cells; assay: CCK-8 cell cytotoxicity assay, LO2; type: cell-based; details: Homo sapiens, read-out: IC50 (μM) LO2
Description: as §1, §2

[4] = test system: AC-16 cells; assay: CCK-8 cell cytotoxicity assay, AC-16; type: cell-based; details: Homo sapiens, read-out: IC50 (μM) AC-16
Description: as §1, §2

[5] = In vitro incubation of euphorbiasteroid with rat liver microsomes, metabolite detection; type: in vitro ADME; details: 37 °C, 1 h, NADPH regenerating system
Description: The microsomal incubation approach was based on previous metabolism studies published by Wintermeyer et al. and Franziska et al.. A 200 μL incubation system containing 10 μL of solution A, 2 μL of solution B, 5 μL of rat liver microsomes (20 mg/mL) and 182 μL 0.1 M PBS buffer (pH = 7.4) was constructed. The above solution was heated in a 37 °C water bath, then 1 μL of euphorbiasteroid (dissolved in DMSO solution, 10 mM) was used to start the reaction, and the mixture was then incubated at 37 °C for 1 h. The reactions were terminated by the addition of 200 μL of ice-cold acetonitrile. The mixture was then centrifuged at 13,000 rpm for 10 min, and a 2-μL aliquot of the supernatant was directly injected into the UPLC-Q-TOF-MS system.
(§3) First, the metabolites of euphorbiasteroid in rats (plasma, urine, and feces), RLMs, and C. elegans culture medium were predicted by setting the prototype components and potential biological metabolic reactions in UNIFI 4.1 software. Then, the predicted metabolites in each sample were further compared according to the characteristic mass spectrum behaviors (including parent ions, internal cleavage in the ion source, and characteristic fragment ions of each metabolite) and retention times.

[6] = Metabolite detection in rats (plasma, urine, feces) after oral euphorbiasteroid by UPLC-Q/TOF-MS; type: in vivo, Sprague-Dawley rats; details: single oral dose 100 mg/kg euphorbiasteroid
Description: For metabolite separation and detection, chromatographic analyses were performed using a Waters Acquity UPLC I-class system (Waters, Milford, MA, USA), equipped with an auto-sampler, a binary solvent delivery system, an online degasser, and a photodiode array detector. An ACQUITY UPLC® HSS T3 column (2.1 × 150 mm, 1.8 μm, Waters) protected with a HSS T3 VanGuard ™ Pre-Column 3/Pk (2.1 × 5.0 mm, 1.8 μm, Waters) was used. The optimized parameters were set as follows: the mobile phase consisted of eluent A (0.1% formic acid in water, v/v) and eluent B (acetonitrile). The flow rate was 0.3 mL/min. The column and auto-sampler temperatures were maintained at 40 °C and 4 °C, respectively. The gradient elution program was optimized as follows: 0–9 min, 30–70% B; 9–13 min, 70–90% B; 13–17 min, 90–100% B; 17–20 min, 100–100% B.
The mass spectrometry detection was performed on the SYNAPT G2-Si HDMS system, equipped with an electrospray ionization (ESI) source (Waters Corp., Manchester, UK). A positive ion mode was conducted in this analysis. Mass spectrometry conditions were finally set as follows: capillary voltage of 3.0 kV, cone voltage of 40 V, source temperature of 120 °C, and de-solvation temperature of 400 °C. Nitrogen was used as the desolvation and cone gas with a flow rate of 800 and 50 L/h, respectively, and the full-scan mass range was set as m/z 50–1500 Da. In the auto mass spectrometry mode, the collision-induced dissociation energies were set at 0 eV for the precursor ion at the low-energy mode, and the collision-induced dissociation energies were set from 2 to 10 eV for the high-energy mode. Real-time data were calibrated using an external reference (LockSpray™) at a concentration of 0.2 ng/mL with an infusion flow rate of 5 μL/min, generating a reference ion for the positive ion mode (m/z 556.2771) during the UPLC-MS analysis. Data were acquired and processed using MassLynx ™ NT 4.1 software (Waters, Milford, MA, USA).
Male Sprague-Dawley rats (200–220 g) were commercially supplied by Shanghai Sippr-BK Laboratory Animal Co., Ltd. (Shanghai, China) and were housed in a humidity- and temperature-controlled room (50 ± 10% and 22–24 °C) with a 12-h light/dark cycle. The experimental rats were allowed to access food and water ad libitum and acclimatized to the conditions mentioned above for a week, then fasted overnight but with free access to water before the experiments. Euphorbiasteroid was dissolved in soybean oil solution (containing 0.5% ethanol) to form a concentration of 10 mg/mL. A single dose of 100 mg/kg euphorbiasteroid was orally administered to rats and the same concentration of soybean oil solution (containing 0.5% ethanol) was administered as a blank control. All animal procedures were performed in accordance with the Guidelines for Care and Use of Laboratory Animals of Naval Medical University and approved by the Animal Ethics Committee of Naval Medical University.
Blood samples (0.5 mL) were collected from six rats through the orbital sinus before administration (blank sample) and 0.25, 0.5, 1, 2, 4, 6, and 12 h after administration. Plasma samples were prepared by centrifugation at 4000 rpm for 10 min. For urine and feces sampling, 12 rats were divided into an administration group and a blank group, and were placed separately in stainless steel metabolic cages. Urine and feces samples were collected in containers surrounded by ice over 0–6, 6–12, and 12–24 h after drug administration. The mixed urine samples were centrifuged at 4000 rpm for 10 min at 4 °C to obtain the supernatants, and fecal samples were left in a cool and dry place until dry. All the biological samples were frozen at −80 °C before analysis.
An aliquot of 200 µL of plasma and urine samples was put in a 1.5 mL tube, respectively. 800 µL of acetonitrile was added and vortexed for 5 min to extract metabolites. Feces samples (1.0 g) were crushed and then ultrasonically extracted with acetonitrile (10 mL) for 30 min. […]

[7] = test system: Cunninghamella elegans bio-110930; assay: Microbial transformation of euphorbiasteroid, metabolite detection; details: C. elegans bio-110930 culture with euphorbiasteroid
Description: The biotransformation process was conducted at two scales: preliminary screening and preparative. Preliminary screening scale biotransformation of euphorbiasteroid was carried out in 250 mL Erlenmeyer flasks containing 100 mL of liquid medium. The flasks were placed on a rotary shaker (160 rpm, 28 °C). A standard two-stage fermentation protocol was employed in all experiments. After 2 days of pre-culture, the substrates of 5 mg (dissolved in 0.5 mL of acetone) were added into each flask. Taking 1 mL samples on days 0, 2, 4, 7, 10, and 14, samples were centrifuged and the degree of transformation was compared to controls on TLC and HPLC, and a 2-μL aliquot of the supernatant was directly injected into the UPLC-Q-TOF-MS system. Culture controls consisted of sterile medium, in which microorganisms were grown under identical conditions without substrate. Substrate controls were composed of sterile medium and the same amount of substrate incubated under the same conditions without microorganisms.
as §3

[8] = test system: human cell lines SH-SY5Y, LO2, AC-16, and HK-2; assay: CCK-8 cytotoxicity, summary over four human cell lines; type: cell-based; details: span over SH-SY5Y, LO2, AC-16, HK-2 (and over the named metabolites), read-out: IC50 values against four human cell lines
Description: as §1, §2

Row | SMILES | IC50 ([1]; 72 h) [µM] | IC50 ([2]; HK-2, 72 h) [µM] | IC50 ([3]; L02, 72 h) [µM] | IC50 ([4]; 72 h) [µM] | Distribution RLMs (metabolite detected) [5] | Distribution Rat Faeces (metabolite detected) [6] | Distribution Rat Plasma (metabolite detected) [6] | Distribution Rat Urine (metabolite detected) [6] | Distribution Fungi (metabolite detected) [7] | IC50 [8] [µM] | IC50 ([1]; CCK-8, 72 h treatment) [µM] | IC50 ([2]; HK-2, CCK-8, 72 h treatment) [µM] | IC50 ([3]; L02, CCK-8, 72 h treatment) [µM] | IC50 ([4]; CCK-8, 72 h treatment) [µM]
1 | CC(=O)OC1C2C(OC(=O)Cc3ccccc3)C(C)CC2(OC(C)=O)C(=O)C(C)=CC2C(CCC13CO3)C2(C)C (stereo not drawn) [Compound M0, Euphorbiasteroid] | 55 ± 1.2 | > 100 | > 100 | 97.7 ± 2.13 | – | – | – | – | – | – | – | – | – | –
2 | CC(=O)OC1C2C(OC(=O)Cc3ccccc3)C(C)CC2(OC(C)=O)C(=O)C(CO)=CC2C(CCC13CO3)C2(C)C (stereo not drawn) [Compound M3, 20-hydroxyl euphorbiasteroid] | 39.6 ± 0.43 | 22.7 ± 0.25 | 37.4 ± 0.41 | 17.9 ± 0.19 | √ | √ | √ | √ | √ | – | – | – | – | –
3 | CC(=O)OC1C2C(OC(=O)Cc3ccccc3)C(C)CC2(OC(C)=O)C(=O)C(C)=CC2C(CCC13CO3)C2(C)C(=O)O (stereo not drawn) [Compound M16, 18α-carboxyl euphorbiasteroid] | – | – | – | – | √ | √ | √ | √ | √ | – | – | – | – | –
4 | CC(=O)OC1C2C(OC(=O)Cc3ccccc3)C(C(=O)O)CC2(OC(C)=O)C(=O)C(C)=CC2C(CCC13CO3)C2(C)C (stereo not drawn) [Compound M17] | – | – | – | – | √ | √ | √ | – | √ | – | – | – | – | –
5 | CC1=CC2C(CCC3(CO3)C(O)C3C(O)C(C)CC3(O)C1=O)C2(C)C (stereo not drawn) [Compound M24, epoxylathyrol] | – | – | – | – | √ | √ | √ | √ | – | 3.6 to 40.7 | 40.7 ± 0.44 | 26.5 ± 0.29 | 38.9 ± 0.42 | 21.7 ± 0.24
6 | CC(=O)OC1C2C(OC(=O)Cc3ccccc3)C(C)CC2(O)C(=O)C(C)=CC2C(CCC13CO3)C2(C)C (stereo not drawn) [Compound M25, 15-deacetyl euphorbiasteroid] | 33.3 ± 0.36 | 16.1 ± 0.18 | 30.1 ± 0.33 | 3.6 ± 0.04 | √ | √ | √ | √ | – | – | – | – | – | –
